Results taken from PMC3289519 (Bioorganic & medicinal chemistry letters, 2012).
pEC50, pIC50: −log10 of the molar value.

What was measured:
[1] = test system: human IMPDH2; conditions: human IMPDH2, no detectable activity; cited from earlier work
[2] = test system: human IMPDH1; conditions: human IMPDH1, no detectable activity; cited from earlier work
[3] = test system: Toxo/CpIMPDH, strain that depends on CpIMPDH; assay type: cell-based, Toxoplasma gondii; conditions: in words
[4] = test system: C. parvum; conditions: anticryptosporidial activity, literature values; cited from earlier work

COc1ccc(NC(=O)Cn2c(-c3cscn3)nc3ccccc32)cc1 [C]
pIC50 [1]: < 4.30 | pIC50 [2]: < 4.30

O=C(Cn1c(-c2nccs2)nc2ccccc21)Nc1ccc(Br)cc1 [Compound C64]
activity against T. gondii/CpIMPDH [3]: sub-micromolar

O=C(Cn1c(-c2nccs2)nc2ccccc21)Nc1ccc(Cl)c(Cl)c1 [Compound C84]
activity against T. gondii/CpIMPDH [3]: sub-micromolar

O=C(Cn1c(-c2cscn2)nc2ccccc21)Nc1ccc2ccccc2c1 [Compound C90]
activity against T. gondii/CpIMPDH [3]: sub-micromolar

O=C(Cn1c(-c2ccccn2)nc2ccccc21)Nc1ccc2ccccc2c1 [Compound C91]
activity against T. gondii/CpIMPDH [3]: sub-micromolar

O=C(Cn1c(-c2nccs2)nc2ccccc21)Nc1ccc2ccccc2c1 [Compound C97]
activity against T. gondii/CpIMPDH [3]: sub-micromolar

NC[C@@H]1O[C@H](O[C@H]2[C@@H](O)[C@H](O[C@@H]3[C@@H](O)[C@H](N)C[C@H](N)[C@H]3O[C@H]3O[C@H](CO)[C@@H](O)[C@H](O)[C@H]3N)O[C@@H]2CO)[C@H](N)[C@@H](O)[C@@H]1O [paromomycin]
pEC50 [4]: 3.89 to 4.19
